Data on 7 molecules can be found in ChEMBL document CHEMBL1833945, “Synthesis and anticonvulsant activity of new N-Mannich bases derived from 5-cyclopropyl-5-phenyl- and 5-cyclopropyl-5-(4-chlorophenyl)-imidazolidine-2,4-diones” (Bioorg Med Chem, 2011).

The structures appear in SMILES notation. Calls of active or inactive are those of the source. The rule behind the calls is not given here. Where only a bound is given, the exact number is not on record here.

The nature of series [1]: Lipophilicity, log P of compound. It counts as physicochemical. The following applies: octanol/water.
Series [2] deals with Mus musculus. As to the kind of experiment: Anticonvulsant activity in CF1 albino mouse assessed as protection against maximal electroshock-induced seizures at 300 mg/kg, ip after 0.5 hrs. Set-up: dose 300 mg/kg. The series is classed as functional, organism-based. For orientation: Protection in the maximal electroshock model is a classic sign of anticonvulsant action.
The subject of series [3] is Mus musculus. The experiment in a line: Neurotoxicity in CF1 albino mouse assessed as impair in motor coordination at 300 mg/kg, ip after 0.5 hrs by rotarod test. Further details: dose 300 mg/kg, route intraperitoneal. The following applies: in vivo. The series is classed as toxicity, organism-based. (Falling from the rotarod earlier than controls is read as motor impairment.)

Series [4] deals with Mus musculus. As to the kind of experiment: Neurotoxicity in CF1 albino mouse assessed as impair in motor coordination at 300 mg/kg, ip after 4 hrs by rotarod test. The following applies: in vivo. It counts as toxicity, organism-based. Set-up: dose 300 mg/kg, route intraperitoneal.
Series [5] deals with Mus musculus. As to the kind of experiment: Anticonvulsant activity in CF1 albino mouse assessed as protection against subcutaneous pentylenetetrazole-induced seizures at 300 mg/kg, […] after 4 hrs. It counts as functional, organism-based. Further details: dose 300 mg/kg.
For series [6], the system named is Mus musculus. As to the kind of experiment: Anticonvulsant activity in ip dosed CF1 albino mouse assessed as protection against maximal electroshock-induced seizures after 4 hrs. It counts as functional. The following applies: read-out: MED.
In series [7] the test system is Mus musculus. As to the kind of experiment: Anticonvulsant activity in ip dosed CF1 albino mouse assessed as protection against subcutaneous pentylenetetrazole-induced seizures after 0.5 hrs. The series is classed as functional. The following applies: read-out: MED.
Series [8] deals with Mus musculus. As to the kind of experiment: Neurotoxicity in CF1 albino mouse assessed as loss of rotard grasping at 300 mg/kg, ip after 4 hrs by rotarod test. It counts as toxicity, organism-based. Further details: dose 300 mg/kg, route intraperitoneal. The following applies: in vivo.
The subject of series [9] is Mus musculus. The experiment in a line: Anticonvulsant activity in ip dosed CF1 albino mouse assessed as protection against maximal electroshock-induced seizures after 0.5 hrs. The following applies: read-out: MED. It counts as functional.
Series [10] has as its system Mus musculus. As to the kind of experiment: Anticonvulsant activity in ip dosed CF1 albino mouse assessed as protection against subcutaneous pentylenetetrazole-induced seizures after 4 hrs. The series is classed as functional. The following applies: read-out: MED.
For series [11], the system named is Mus musculus. The experiment in a line: Neurotoxicity in CF1 albino mouse assessed as minimum dose causing loss of righting reflex at 300 mg/kg, ip after 4 hrs by rotarod test. It counts as toxicity, organism-based. The following applies: in vivo. Set-up: dose 300 mg/kg, route intraperitoneal.
The test system of series [12] is Mus musculus. The experiment in a line: Neurotoxicity in CF1 albino mouse assessed as loss of rotard grasping at 300 mg/kg, ip after 0.5 hrs by rotarod test. It counts as toxicity, organism-based. Further details: dose 300 mg/kg, route intraperitoneal. The following applies: in vivo.
Series [13] has as its system Rattus norvegicus. As to the kind of experiment: Neurotoxicity in Sprague-Dawley albino rat assessed as motor impairment at 50 mg/kg, po after 0.5 hrs by rotarod test. The following applies: in vivo. It counts as toxicity, organism-based. Further details: dose 50 mg/kg, route oral.
Series [14] deals with Rattus norvegicus. As to the kind of experiment: Neurotoxicity in Sprague-Dawley albino rat assessed as motor impairment at 50 mg/kg, po after 0.25 hrs by rotarod test. The series is classed as toxicity, organism-based. Further details: dose 50 mg/kg, route oral. The following applies: in vivo.
For series [15], the system named is Rattus norvegicus. The experiment in a line: Neurotoxicity in Sprague-Dawley albino rat assessed as motor impairment at 50 mg/kg, po after 1 hrs by rotarod test. The series is classed as toxicity, organism-based. Further details: dose 50 mg/kg, route oral. The following applies: in vivo.
Series [16] deals with Mus musculus. The experiment in a line: Neurotoxicity in ip dosed CF1 albino mouse assessed as minimum dose required to cause impair in motor coordination after 4 hrs by rotarod test. The following applies: in vivo. It counts as toxicity, organism-based.
The subject of series [17] is Rattus norvegicus. The experiment in a line: Anticonvulsant activity in po dosed Sprague-Dawley albino rat assessed as time to peak effect. It counts as functional.
Series [18] in a line: Neurotoxicity in oral dosed Sprague-Dawley albino rat assessed as motor impairment by rotarod test. The following applies: in vivo. It counts as toxicity, organism-based.
The test system of series [19] is Mus musculus. The experiment in a line: Anticonvulsant activity in CF1 albino mouse assessed as protection against electrically-induced seizure at 100 mg/kg, ip after 0.25 hrs by 6Hz psychomotor seizure test. The series is classed as functional, organism-based. Set-up: dose 100 mg/kg.
Series [20] deals with Rattus norvegicus. The experiment in a line: Neurotoxicity in Sprague-Dawley albino rat assessed as motor impairment at 50 mg/kg, po after 2 hrs by rotarod test. It counts as toxicity, organism-based. Set-up: dose 50 mg/kg, route oral. The following applies: in vivo.
Series [21] concerns Rattus norvegicus. As to the kind of experiment: Neurotoxicity in Sprague-Dawley albino rat assessed as motor impairment at 50 mg/kg, po after 4 hrs by rotarod test. The series is classed as toxicity, organism-based. Further details: dose 50 mg/kg, route oral. The following applies: in vivo.
Series [22] has as its system Rattus norvegicus. The experiment in a line: Anticonvulsant activity in po dosed Sprague-Dawley albino rat assessed as protection against subcutaneous pentylenetetrazole-induced seizures. It counts as functional.
Series [23] has as its system Mus musculus. The experiment in a line: Anticonvulsant activity in CF1 albino mouse assessed as protection against electrically-induced seizure at 100 mg/kg, ip after 0.5 hrs by 6Hz psychomotor seizure test. The series is classed as functional, organism-based. Further details: dose 100 mg/kg.
The subject of series [24] is Rattus norvegicus. The experiment in a line: Anticonvulsant activity in Sprague-Dawley albino rat assessed as protection against subcutaneous pentylenetetrazole-induced seizures at 50 mg/kg, po after 0.25 hrs. It counts as functional, organism-based. Further details: dose 50 mg/kg.
Series [25] concerns Rattus norvegicus. As to the kind of experiment: Neurotoxicity in Sprague-Dawley albino rat assessed as motor impairment at 30 mg/kg, po after 1 hrs by rotarod test. Set-up: dose 30 mg/kg, route oral. The following applies: in vivo. The series is classed as toxicity, organism-based.
Series [26] relates to Rattus norvegicus. The experiment in a line: Neurotoxicity in Sprague-Dawley albino rat assessed as motor impairment at 30 mg/kg, po after 0.5 hrs by rotarod test. The series is classed as toxicity, organism-based. Further details: dose 30 mg/kg, route oral. The following applies: in vivo.
The species named for series [27] is Rattus norvegicus. As to the kind of experiment: Protective index, ratio of TD50 for neurotoxicity in Sprague-Dawley albino rat to ED50 for inhibition of maximal electroshock-induced seizures in Sprague-Dawley albino rat. The series is classed as functional.
Series [28] relates to Rattus norvegicus. The experiment in a line: Neurotoxicity in Sprague-Dawley albino rat assessed as motor impairment at 30 mg/kg, po after 2 hrs by rotarod test. The series is classed as toxicity, organism-based. Further details: dose 30 mg/kg, route oral. The following applies: in vivo.
For series [29], the system named is Rattus norvegicus. The experiment in a line: Neurotoxicity in Sprague-Dawley albino rat assessed as motor impairment at 30 mg/kg, po after 4 hrs by rotarod test. The series is classed as toxicity, organism-based. Further details: dose 30 mg/kg, route oral. The following applies: in vivo.
Series [30] has as its system Rattus norvegicus. The experiment in a line: Anticonvulsant activity in po dosed Sprague-Dawley albino rat assessed as protection against maximal electroshock-induced seizures. The series is classed as functional.
Series [31] deals with Rattus norvegicus. The experiment in a line: Neurotoxicity in Sprague-Dawley albino rat assessed as motor impairment at 30 mg/kg, po after 0.25 hrs by rotarod test. The series is classed as toxicity, organism-based. Set-up: dose 30 mg/kg, route oral. The following applies: in vivo.
In series [32] the test system is Mus musculus. As to the kind of experiment: Toxicity in subcutaneous pentylenetetrazole-induced CF1 albino mouse assessed as myoclonic jerks at 300 mg/kg, ip after 4 hrs. Further details: dose 300 mg/kg. The following applies: in vivo, sc. It counts as organism-based.

As usually defined, the logP is the decadic logarithm of the partition coefficient of the neutral form, usually between octanol and water. The molecule `O=C1NC(c2ccc(Cl)cc2)(C2CC2)C(=O)N1CN1CCc2ccccc2C1` (stereo not drawn) gave a logP in series [1] of 3.71. Further, the result with Mus musculus [2] and in the series with Mus musculus [5] was inactive. The Activity result with Mus musculus [3] and with Mus musculus [4] was “Non-toxic” in each case. Further, in the series with Mus musculus [6], the minimal effective dose was 300 mg/kg.
As for `O=C1NC(c2ccc(Cl)cc2)(C2CC2)C(=O)N1CN1CCN(c2ccccc2F)CC1` (stereo not drawn), the result in the series on Mus musculus [2] and with Mus musculus [5] was inactive. Also, the Activity entry in the series with Mus musculus [3] and in the series with Mus musculus [4] was “Non-toxic” throughout. Also, in the series with Mus musculus [6], the minimal effective dose stood at 300 mg/kg.
`O=C1NC(c2ccccc2)(C2CC2)C(=O)N1CN1CCN(c2ccccc2)CC1` (stereo not drawn): the result with Mus musculus [2] and in the series with Mus musculus [5] was inactive. Moreover, the minimal effective dose with Mus musculus [7] and in the series on Mus musculus [6] was 100 mg/kg each time. The Activity entry in the series on Mus musculus [3] and in the series on Mus musculus [4] was “Non-toxic” throughout.
As for `O=C1NC(c2ccc(Cl)cc2)(C2CC2)C(=O)N1CN1CCN(c2ccccc2)CC1` (stereo not drawn), the results for the Activity result with Mus musculus [8] and in the series with Mus musculus [3] were “Toxic” and “Non-toxic”, respectively. The result in the series with Mus musculus [2] and in the series with Mus musculus [5] was inactive. For the same molecule, the minimal effective dose with Mus musculus [6] turned out to be 100 mg/kg.
As for `O=C1NC(c2ccccc2)(C2CC2)C(=O)N1CN1CCN(C/C=C/c2ccccc2)CC1` (stereo not drawn), the minimal effective dose with Mus musculus [9] was determined as 100 mg/kg; with Mus musculus [10], 300 mg/kg; in the series with Mus musculus [7], 100 mg/kg; in the series on Mus musculus [6], 100 mg/kg. The molecule also showed a logP in [1] of 3.3. The Activity entry in the series on Mus musculus [11] and in the series with Mus musculus [12] was “Toxic” each time.
What is called TD50 is the dose at which the toxic effect under study appears in half of the subjects. As usually defined, the ED50 is the midpoint of the dose-response relation. On to `O=C1NC(=O)C(c2ccc(Cl)cc2)(C2CC2)N1` (stereo not drawn), for which the Activity result in the series with Rattus norvegicus [13], in the series with Rattus norvegicus [14], in the series with Rattus norvegicus [15], in the series with Mus musculus [3], in the series with Rattus norvegicus [20] and in the series on Rattus norvegicus [21] was “Non-toxic” each time. In addition, the minimal effective dose with Mus musculus [10] is 30 mg/kg; in the series on Mus musculus [7], 300 mg/kg; with Mus musculus [6], 300 mg/kg. This molecule came in with a logP in series [1] of 2.63. Also, the result in the series on Mus musculus [2], with Mus musculus [19], with Mus musculus [23] and in the series on Rattus norvegicus [24] was inactive. In the series with Mus musculus [16], the MTC worked out at 300 mg/kg. The Time in the series on Rattus norvegicus [17] worked out at 2 h. Besides, the TD50 in [18] was greater than 135 mg/kg. In addition, the ED50 in the series on Rattus norvegicus [22] is 85 mg/kg.
Take `CC(c1ccccc1)N1CCN(CN2C(=O)NC(c3ccccc3)(C3CC3)C2=O)CC1` (stereo not drawn): the Activity result with Rattus norvegicus [25], in the series on Rattus norvegicus [26], in the series on Mus musculus [3], in the series with Mus musculus [4], in the series with Rattus norvegicus [28] and in the series on Rattus norvegicus [29] was “Non-toxic” in each case. For the same molecule, the Activity entry is reported as “Non-toxic” in the series with Rattus norvegicus [31] and “Toxic” in the series with Mus musculus [32]. Also, the minimal effective dose with Mus musculus [9] turned out to be 300 mg/kg; with Mus musculus [6], 100 mg/kg. This molecule also showed a logP in series [1] of 3.19. For the same molecule, in the series with Rattus norvegicus [17], the Time was found to be 2 h. In addition, the PI in the series listed under Rattus norvegicus [27] is greater than 18.3. In addition, the TD50 in series [18] was greater than 200 mg/kg. The ED50 in the series with Rattus norvegicus [30] was 10.9 mg/kg; in the series with Rattus norvegicus [22], less than 100 mg/kg.
